Laboratory results as given in US8246758B2, “Neutral or alkaline medium chain peroxycarboxylic acid compositions and methods employing them” (Ecolab USA Inc., priority 2004, dated 2012).
Where two headings read alike, the source gives them in different places.

How the values were obtained:
[1] = tested on: spores of Clostridium sporogenes ATCC 3584; type: cell-based; details: pH 6.5, 10 hrs, Ambient
[2] = tested on: Trichophyton mentagrophytes ATCC 9533; experiment: AOAC Fungicidal Activity of Disinfectants (955.17); type: cell-based; details: pH 6.5, 5 min, Ambient
Method: Activity against fungus, Trichophyton mentagrophytes ATCC 9533, was evaluated using the Fungicidal Activity of Disinfectants using Trichophyton mentagrophytes, Official Methods of Analysis of the Association of Official Analytical Chemists, paragraph 955.17. Composition KK was adjusted to pH 6.5 in synthetic hard water (400 ppm hardness) and tested for activity in the presence of a 5% organic soil load. Antimicrobial efficacy was determined by exposing stainless steel penicyclinders containing dried Trichophyton mentagrophytes to 10 mL of the test substance at the desired concentration, temperature and for the desired contact time. After which each penicylinder was removed aseptically and transferred to a neutralizing subculture medium. A peroxyacetic acid composition was also tested by this procedure.

[3] = tested on: Pseudomonas aeruginosa biofilm; experiment: Biofilm removal from stainless steel coupon
Mycobacterium bovis BCG = type: cell-based

CCCCCCCC(=O)OO [Peroxyoctanoic Acid]
# Negative Tubes/# Tubes Tested ([1]; 400 ppm): 60/60
# Negative Tubes/# Tubes Tested ([2]; 400 ppm): 10/10

[Na+].[OH-] [caustic, NaOH]
survivors on enrichment of treated coupons ([3]; caustic (3% of 50% NaOH) for 3 min at 160° F.): survivors on one of two coupons
biofilm cleaning performance, ranking ([3]; total 6 min at 160° F., synthetic hard water 500 ppm, acridine orange fluorescence imaging): lastly

CC(=O)OO [Peroxyacetic Acid]
concentration of peroxyacetic acid needed to be as effective (Mycobacterium bovis BCG): ≥ 1250 ppm
# Negative Tubes/# Tubes Tested ([1]; 1000 ppm): 59/60
# Negative Tubes/# Tubes Tested ([2]; 1000 ppm): 10/10
